Molecular target: CYP2C9 (Homo sapiens, UniProt P11712)
Details: microsomes
Procedure: Text S1. Supplementary Materials and Methods.
Male Human Liver Pooled S9; Tokyo, Japan). Midazolam, midazolam-d4, 1ʹ-hydroxymidazolam, testosterone, testosterone-d3, and 6β-hydroxytestosterone, were purchased […]
(Fluorometric)) were purchased from BioVision. Inc. (Milpitas, CA, USA). Reversed vesicles […]
were commercially available.
2. Evaluation of ATSP-7041 as a substrate of CYPs
S9, with or without the NADPH generation system. S9 (A), at a 2 mg/mL protein concentration […]
The reaction solution (400 μL) was then
3. Evaluation of ATSP-7041 as an inhibitor of CYPs […]
the manufacturer’s protocol. […]
the indicated periods of times. The substrates, positive control inhibitors, and fluorescence […]
Table S1. Parameters used in LC/MS analysis.
Table S2. Substrates and positive control inhibitors used for CYPs inhibition screening.
Residual activity (% of control, i.e. without test chemical for inhibition) of human CYPs with ATSP-7041 (10 μM) in CYPs inhibition screening. The activity of CYPs were calculated as background-corrected reaction rates using the linear phase of reaction progress […]
curve. Data are presented as the mean ± S.D. (n = 3). *
Analyte Transition Polarity Ion source voltage Source temp. Collision energy LC gradient program […]
5% B (0-1 min) - 45% B (3 min)
CYP isoform Substrate Concentration Positive control inhibitor Concentration Detection Kit No. […]

Sequence of CYP2C9 (P11712 whole entry): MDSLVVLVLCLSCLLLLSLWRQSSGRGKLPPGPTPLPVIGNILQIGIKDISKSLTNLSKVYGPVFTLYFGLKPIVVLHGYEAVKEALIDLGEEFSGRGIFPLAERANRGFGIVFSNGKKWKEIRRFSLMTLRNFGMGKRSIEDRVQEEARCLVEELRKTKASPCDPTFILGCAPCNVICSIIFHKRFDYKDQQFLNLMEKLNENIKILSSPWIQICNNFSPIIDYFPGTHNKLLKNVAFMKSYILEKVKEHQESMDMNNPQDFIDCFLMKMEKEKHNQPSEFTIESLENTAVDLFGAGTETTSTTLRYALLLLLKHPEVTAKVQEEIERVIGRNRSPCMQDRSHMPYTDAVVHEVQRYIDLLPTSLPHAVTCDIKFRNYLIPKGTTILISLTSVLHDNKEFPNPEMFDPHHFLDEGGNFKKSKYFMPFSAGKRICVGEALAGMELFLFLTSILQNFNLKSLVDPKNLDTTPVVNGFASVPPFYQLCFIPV

Nc1ccc(S(=O)(=O)Nc2ccnn2-c2ccccc2)cc1 [Sulfaphenazole]
Residual activity (% of control) CYP2C9, positive control inhibitor: 8.59 ± 2.06 % of control

— paper PMC10296347, “Identification of the Stapled α-Helical Peptide ATSP-7041 as a Substrate and Strong Inhibitor of OATP1B1 In Vitro” (Biomolecules, 2023)
